Experiments:
Assay type in all cases: in vivo, rat
[1] = test system: mucosa-submucosa preparations; assay: Ussing chamber, secretory response to carbachol (ΔIsc), TNBS colitis rats; details: THC alone, data not shown
Experimental: (§1) Using the Ussing chamber technique, secretory responses evoked by veratridine (a nerve stimulant, 1×10^−5M) were assessed and expressed as % response to carbachol (1×10−5M).
(§2) CBD was used at doses of 5, 10, 15 and 20 mg/kg. THC was used at doses of 5, 10 and 20 mg/kg. In addition THC at doses of 5 and 10 mg/kg was administered in combination with CBD at a dose of 10 mg/kg.
(§3) Doses were administered i.p., once daily starting 0.5 hour before TNBS administration and animals (n=6-11 per group) were sacrificed 72 hours after colitis induction.

[2] = test system: TNBS (trinitrobenzenesulfonic acid) model of colitis; assay: TNBS model of colitis, macroscopic damage score (MDS); details: for MDS, mean: 72 h after TNBS, 0-13 scale
Experimental: (§4) In this example, the TNBS (trinitrobenzenesulfonic acid) model of colitis was used to characterize the effects of CBD alone, THC alone and a combination of CBD and THC (in two different ratios) on inflammation and in vitro motility and secretory parameters.
(§5) Colitis was evoked in male Wistar rats by intra-colonic administration of 6.7 mg TNBS in 0.25 ml 25% ethanol. The degree of inflammation was quantified using a macroscopic damage score (MDS, 0-13 scale) and myeloperoxidase (MPO) activity.
as §2, §3

[3] = test system: mucosa-submucosa preparations; assay: Ussing chamber, secretory response evoked by veratridine (nerve stimulation), TNBS colitis rats
Experimental: as §1, §2, §3

[4] = test system: myeloperoxidase (MPO) activity; assay: TNBS model of colitis, myeloperoxidase (MPO) activity; details: for MPO, mean: 72 h after TNBS
Experimental: as §4, §5, §2, §3

Structure (SMILES) | responses to carbachol [1] | MDS, mean ([2]; THC 5 mg/kg i.p. once daily, vehicle 6.00) | MDS, mean ([2]; THC 20 mg/kg i.p. once daily, vehicle 6.00) | dose-response relationship on MDS ([2]; THC 5, 10 and 20 mg/kg i.p.) | secretory response to nerve stimulation ([3]; THC 10 mg/kg i.p. alone, expressed as % response to carbachol, vehicle 24.4±8.2) | secretory responses to nerve stimulation ([3]; THC alone, data not shown) | MPO, mean ([4]; THC 5 mg/kg i.p. once daily, vehicle 3.35) [ngHRP/mg protein] | MDS, mean ([2]; CBD 5 mg/kg i.p. once daily, vehicle 5.46) | MDS, mean ([2]; CBD 15 mg/kg i.p. once daily, vehicle 5.46) | MDS, mean ([2]; CBD 20 mg/kg i.p. once daily, vehicle 5.46) | MPO, mean ([4]; CBD 5 mg/kg i.p. once daily, vehicle 6.03) [ngHRP/mg protein] | MPO, mean ([4]; CBD 10 mg/kg i.p. once daily, vehicle 6.03) [ngHRP/mg protein] | MPO, mean ([4]; CBD 15 mg/kg i.p. once daily, vehicle 6.03) [ngHRP/mg protein] | MPO, mean ([4]; CBD 20 mg/kg i.p. once daily, vehicle 6.03) [ngHRP/mg protein] | effect on MPO across doses ([4]; CBD 5, 10, 15 and 20 mg/kg i.p.)
CCCCCc1cc(O)c2c(c1)OC(C)(C)[C@@H]1CCC(C)=C[C@@H]21 [THC, tetrahydrocannabinol] | not significantly increased | 6.5 | 4.67 | bell-shaped pattern | 30.3±7.5 | did not affect | 4.29 |  |  |  |  |  |  |  | 
C=C(C)[C@@H]1CCC(C)=C[C@H]1c1c(O)cc(CCCCC)cc1O [CBD, cannabidiol] |  |  |  |  |  |  |  | 6.75 | 5.60 | 4.60 | 5.38 | 4.65 | 4.00 | 2.68 | reduced MPO in a dose dependent manner, but the effect was not significant

Reference: patent publication US20100286098A1, “USE OF TETRAHYDROCANNABINOL AND/OR CANNABIDIOL FOR THE TREATMENT OF INFLAMMATORY BOWEL DISEASE” (GW Pharma Limited, priority 2007, published 2010)
